The values below come from patent US20140335179A1, “[…] OF ATORVASTATIN HEMICALCIUM” (DSM SINOCHEM PHARMACEUTICALS NETHERLANDS B.V., priority 2011, published 2014).

Data set [1] is described as follows: Determination of intrinsic dissolution rate (IDR), stationary disc method, USP 24 apparatus. Format: physicochemical. The following applies: 37°C, 100 rpm, hemi calcium salt; for IDR, mean value: 50 mM sodium dihydrogen phosphate buffer pH 6.8 with 2% w/v sodium lauryl sulphate. As to the method:
IDR of crystalline and amorphous atorvastatin hemi-calcium samples was performed by the stationary disc method using USP 24 apparatus. The discs were prepared by compacting 100 mg of powder at 800 psi pressure in a hydraulic press (Hydraulic Unit Model 3912, Carver Inc., WI) with a dwell time of 15 sec, in 8 mm punch die set (surface area 0.5 cm^2). The dissolution studies were performed in 500 ml of 50 mM sodium dihydrogen phosphate buffer (pH 6.8) containing 2% w/v sodium lauryl sulphate maintained at a temperature of 37±0.5° C. and a rotational speed of 100 rpm. Samples were withdrawn at regular intervals, replaced with dissolution medium, and analyzed by UV spectrophotometry at 242 nm up to 60 minutes.

Data set [2] in a line: Specific surface area determination by nitrogen gas sorption (BET). Format: physicochemical. The following applies: individual samples, hemi calcium salt. The method, then:
Specific surface area of the samples was determined using nitrogen gas sorption (Smartsorb, Smart Instruments, Mumbai, India). Prior to measurements, weighed samples were regenerated by degassing to remove moisture and contamination. The regenerated sample was dipped in liquid nitrogen and the quantity of the adsorbed gas was measured using thermal conductivity detector and then integrated using electronic circuit in terms of counts. The instrument was calibrated by injecting known quantity of nitrogen. The measured parameters were then used to calculate surface area of the sample by employing the adsorption theories of Brunauer, Emmett and Teller (BET).

The conditions of data set [3]: mean value of 35 separate batches. The method, then: • Instrument: The PSD was determined using a Malvern Mastersizer 2000 equipped with hydro 2000S(A), flow cell, Fourier lenses and a multi-element detector • Data handling system: Malvern Mastersizer 2000 version 5.21 • Technique used: Wet method • Optical parameters: Optical presentation comprising of: • Particle RI: 1.5 • Absorption: 0 • Dispersant RI: 1.375 or 1.4 • Analysis Model: General purpose • Sample measurement snaps: 5000 • Background meas. snaps: 5000 • No. of measurement cycles: 5 • Delay between measurements: 5 sec • Preparation of sample solution: About 25 mg of the sample was weighed in a beaker and about 20 mL of dispersion medium was added with constant stirring and sonification for 30 sec resulting in a uniform dispersion. After sonification the measurement was performed after the obscure value was stabilized between 10-20% • Procedure: • a. The flow cell was assembled to the instrument • b. Dispersion medium poured to Hydro 2000S(A) unit • c. Stirrer speed was set at 2200 rpm • d. Instrument was aligned after feeding the required parameters • e. Background was measured • f. Sample was analyzed by recording five measurements for each sample preparation and the mean RSD values were collected at D(v, 0.1), D(v, 0.5) and D(v, 0.9)

Several values for one entry are separate records, joined by “and”; a condition that tells them apart may be missing. Equal values may be shown once.

Turning to `CC(C)c1c(C(=O)Nc2ccccc2)c(-c2ccccc2)c(-c2ccc(F)cc2)n1CC[C@@H](O)C[C@@H](O)CC(=O)O.CC(C)c1c(C(=O)Nc2ccccc2)c(-c2ccccc2)c(-c2ccc(F)cc2)n1CC[C@@H](O)C[C@@H](O)CC(=O)O.CC(C)c1c(C(=O)Nc2ccccc2)c(-c2ccccc2)c(-c2ccc(F)cc2)n1CC[C@@H](O)C[C@@H](O)CC(=O)[O-].CC(C)c1c(C(=O)Nc2ccccc2)c(-c2ccccc2)c(-c2ccc(F)cc2)n1CC[C@@H](O)C[C@@H](O)CC(=O)[O-].[Ca+2]` (relative stereo) [amorphous atorvastatin, [R-(R*,R*)]-2-(4-fluorophenyl)-β,δ-dihydroxy-5-(1-methylethyl)-3-phenyl-4-[(phenylamino)carbonyl]-1H-pyrrole-1-heptanoic acid hemi calcium salt, reference compound], the “IDR, mean value” in data set [1] is 0.281 mg/cm^2/min.

`CC(C)c1c(C(=O)Nc2ccccc2)c(-c2ccccc2)c(-c2ccc(F)cc2)n1CC[C@@H](O)C[C@@H](O)CC(=O)O.CC(C)c1c(C(=O)Nc2ccccc2)c(-c2ccccc2)c(-c2ccc(F)cc2)n1CC[C@@H](O)C[C@@H](O)CC(=O)O.CC(C)c1c(C(=O)Nc2ccccc2)c(-c2ccccc2)c(-c2ccc(F)cc2)n1CC[C@@H](O)C[C@@H](O)CC(=O)[O-].CC(C)c1c(C(=O)Nc2ccccc2)c(-c2ccccc2)c(-c2ccc(F)cc2)n1CC[C@@H](O)C[C@@H](O)CC(=O)[O-].[Ca+2]` (relative stereo) [crystalline atorvastatin hemi-calcium having a well-defined ] [[R-(R*,R*)]-2-(4-fluorophenyl)-β,δ-dihydroxy-5-(1-methylethyl)-3-phenyl-4-[(phenylamino)carbonyl]-1H-pyrrole-1-heptanoic acid hemi calcium salt]: the “IDR, mean value” in data set [1] was determined as 0.132 mg/cm^2/min. Besides, the “IDR values of three samples” value in data set [1] (three different micronized samples of the Example, pH 6.8 buffer with 2% SLS) was 0.146±0.013 mg/cm^2/min and 0.130±0.017 mg/cm^2/min and 0.109±0.006 mg/cm^2/min. In addition, the surface area in data set [2] is 8.550±0.051 m^2/g and 8.384±0.303 m^2/g and 8.684±0.216 m^2/g. In data set [3], the “PSD d10” value is 3 μm, the “PSD d50” value is on record as 6 μm and the “PSD d90” value stood at 12 μm.
